Read-outs that look alike come from different tables or passages of the source.
Experiment: Study MPKF: plasma pharmacokinetics of MDMA and MDA, single 120 mg MDMA·HCl, fasted/fed
Format: in vivo, human
Conditions: for Tmax: median; for concentration at 0.5 h: .5 h
Text: The MPKF was a Phase 1, open-label, randomized sequence, multi-dose, 2-period crossover food effect study in 16 healthy individuals. The MPKF study evaluated plasma concentrations of both MDMA and the active metabolite 3,4-methylenedioxyamphetamine (MDA). Summary PK Parameters of the preliminary data was based on interim analysis are presented in Table 12 Table 12 Table 12, and Table 13 Table 13 Table 13 for MDMA and MDA, respectively.
Participants were randomized to receive 1 of 2 conditions before the other: • Fasted Treatment: at least 10 hours of fasting followed by administration of MDMA HCl with 240 mL water. • Fed Treatment: at least 10 hours of fasting followed by a high-fat (approximately 50% of total caloric content of the meal) and high-calorie (approximately 800 to 1000 calories) meal was consumed within 30 minutes prior to IMP administration.
Participants remained at the clinical research unit (CRU) for each Dosing Session from the time of check-in on the night before dosing until discharge 48 hours after dosing for collection of serial blood samples for PK analysis and safety monitoring. IMP was administered on Day 1 following the treatment sequence to which the participant was randomized. An additional outpatient visit occurred 72 hours after dosing to collect a final PK sample, commensurate with the expected PK profiles of MDMA and MDA. Safety assessments were also performed at this visit.
The washout period between Dosing Sessions was at least 14 days. If a participant experienced emesis within 4 hours of administration, they were to be withdrawn from the study and replaced with a new participant. An End of Study Visit was performed 2 to 10 days after the completion of the final Dosing Session 72-hour follow-up. An informal interim analysis was planned to be conducted after at least 5 participants completed at least 1 Dosing Session to examine PK variability.
The API was a white crystalline powder of pharmaceutical quality, made according to current Good Manufacturing Practices (cGMP) for human use.
Participants: Sixteen healthy individuals were recruited for the study.
Intervention: The study was conducted as a Phase 1, open-label, randomized sequence, multi-dose, 2-period crossover food effect study. Each participant received multiple doses of MDMA, and plasma concentrations of both MDMA and the active metabolite MDA were measured.
Sample Collection: Blood samples were collected at various time points up to 72 hours after dosing. The samples were analyzed using validated liquid chromatography-tandem mass spectrometry (LC-MS/MS) methods.
Data Analysis: The summary PK parameters were presented in Table 12 for MDMA and Table 13 for MDA. The data were analyzed using descriptive statistics, and the mean and standard deviation were calculated. The results were compared between the two periods and analyzed for food effects. Statistical analyses were performed using appropriate methods, such as analysis of variance (ANOVA) and paired t-tests. A p-value of less than 0.05 was considered statistically significant.

[1] = Fasted N = 15, 120 mg MDMA·HCl, preliminary
[2] = Fasted N = 15, 120 mg MDMA·HCl, preliminary, arithmetic mean
[3] = Fed N = 11, 120 mg MDMA·HCl, preliminary
[4] = Fed N = 11, 120 mg MDMA·HCl, preliminary, arithmetic mean
[5] = human, plasma, oral, 120 mg, fasted treatment group, read-out: PK plasma concentration, Geom. Mean
[6] = human, plasma, oral, 120 mg, fasted treatment group, read-out: PK plasma concentration, Mean
[7] = human, plasma, oral, 120 mg, fasted treatment group, read-out: PK plasma concentration, Median
[8] = human, plasma, oral, 120 mg, fed treatment group, read-out: PK plasma concentration, Geom. Mean
[9] = human, plasma, oral, 120 mg, fed treatment group, read-out: PK plasma concentration, Mean
[10] = human, plasma, oral, 120 mg, fed treatment group, read-out: PK plasma concentration, Median

SMILES: CNC(C)Cc1ccc2c(c1)OCO2 (centres unmarked) [MDMA, 3,4-methylenedioxymethamphetamine]
- higher plasma PK values in intermediate relative to normal CYP2D6 metabolizers (8 intermediate, 8 normal metabolizers): approximately 26%
- Cmax, Geometric LSM (Fasted): 238 ng/mL
- Tlag [1]: 0.6 h
- CL/F [2]: 29.5 L/h
- Cmax [2]: 238 ng/mL
- Tmax [1]: 2 h
- AUC0-inf, Geometric LSM (Fed): 3357 ng·h/mL
- Cmax, Geometric LSM (Fed): 229 ng/mL
- Tlag [3]: 0.7 h
- AUC(0-inf) [4]: 3318 ng·h/mL
- CL/F [4]: 30.1 L/h
- Cmax [4]: 227 ng/mL
- Tmax [3]: 4 h
- Cmax (both sexes, human, plasma, oral, single 120 mg dose of MDMA·HCl, fasting healthy males and females, read-out: Cmax): 261 ng/mL
- Cmax (both sexes, human, plasma, po, single 120 mg dose of MDMA·HCl, fasting healthy males and females, read-out: Cmax): 261 ng/mL
- AUC0-72, Geometric Mean Ratio (fed vs fasted): 0.99
- AUC0-inf, Geometric Mean Ratio (fed vs fasted): 0.99
- AUC0-t, Geometric Mean Ratio (fed vs fasted): 1.00
- Cmax, Geometric Mean Ratio (fed vs fasted): 0.97
- dose proportionality of pharmacokinetics (higher than dose proportional increases, auto-inhibition of CYP2D6): non-linear
- AUC(0-t) (human, plasma, oral, 120 mg, Fasted, read-out: AUC0-72, Geometric LSM): 3360 ng·h/mL
- AUC(0-inf) (human, plasma, oral, 120 mg, Fasted, read-out: AUC0-inf, Geometric LSM): 3380 ng·h/mL
- AUC(0-t) (human, plasma, oral, 120 mg, Fasted, read-out: AUC0-t, Geometric LSM): 3120 ng·h/mL
- AUC(0-t) (human, plasma, oral, 120 mg, Fed, read-out: AUC0-72, Geometric LSM): 3340 ng·h/mL
- AUC(0-t) (human, plasma, oral, 120 mg, Fed, read-out: AUC0-t, Geometric LSM): 3110 ng·h/mL
- half-life (human, plasma, oral, 120 mg, both fed and fasted groups, read-out: mean elimination half-life): 8 to 9 h
- concentration at 1 h [5]: 111 ng/mL
- concentration at 1 h [6]: 111 ng/mL
- concentration at 1 h [7]: 124 ng/mL
- concentration at 2 h [5]: 186 ng/mL
- concentration at 2 h [6]: 210 ng/mL
- concentration at 2 h [7]: 211 ng/mL
- concentration at 4 h [5]: 219 ng/mL
- concentration at 4 h [6]: 225 ng/mL
- concentration at 4 h [7]: 218 ng/mL
- concentration at 6 h [5]: 188 ng/mL
- concentration at 6 h [6]: 193 ng/mL
- concentration at 6 h [7]: 199 ng/mL
- concentration at 8 h [5]: 160 ng/mL
- concentration at 8 h [6]: 166 ng/mL
- concentration at 8 h [7]: 165 ng/mL
- concentration at 12 h [5]: 111 ng/mL
- concentration at 12 h [6]: 118 ng/mL
- concentration at 12 h [7]: 120 ng/mL
- concentration at 24 h [5]: 44.2 ng/mL
- concentration at 24 h [6]: 50.1 ng/mL
- concentration at 24 h [7]: 53.6 ng/mL
- concentration at 48 h [5]: 12.3 ng/mL
- concentration at 48 h [6]: 7.61 ng/mL
- concentration at 48 h [7]: 6.5 ng/mL
- concentration at 72 h [5]: 6.25 ng/mL
- concentration at 72 h [6]: 0.417 ng/mL
- concentration at 72 h [7]: 0 ng/mL
- concentration at 0.5 h [5]: 39.3 ng/mL
- concentration at 0.5 h [6]: 23.1 ng/mL
- concentration at 0.5 h [7]: 0 ng/mL
- concentration at 1 h [8]: 46.2 ng/mL
- concentration at 1 h [9]: 59.8 ng/mL
- concentration at 1 h [10]: 47.4 ng/mL
- concentration at 2 h [8]: 118 ng/mL
- concentration at 2 h [9]: 129 ng/mL
- concentration at 2 h [10]: 132 ng/mL
- concentration at 4 h [8]: 222 ng/mL
- concentration at 4 h [9]: 228 ng/mL
- concentration at 4 h [10]: 224 ng/mL
- concentration at 6 h [8]: 208 ng/mL
- concentration at 6 h [9]: 215 ng/mL
- concentration at 6 h [10]: 208 ng/mL
- concentration at 8 h [8]: 173 ng/mL
- concentration at 8 h [9]: 181 ng/mL
- concentration at 8 h [10]: 180 ng/mL
- concentration at 12 h [8]: 120 ng/mL
- concentration at 12 h [9]: 129 ng/mL
- concentration at 12 h [10]: 132 ng/mL
- concentration at 24 h [8]: 42 ng/mL
- concentration at 24 h [9]: 50.5 ng/mL
- concentration at 24 h [10]: 41.4 ng/mL
- concentration at 48 h [8]: 14.2 ng/mL
- concentration at 48 h [9]: 7.41 ng/mL
- concentration at 48 h [10]: 0 ng/mL
- concentration at 72 h [8]: 11.3 ng/mL
- concentration at 72 h [9]: 0.81 ng/mL
- concentration at 72 h [10]: 0 ng/mL
- concentration at 0.5 h [8]: 18.5 ng/mL
- concentration at 0.5 h [9]: 10.2 ng/mL
- concentration at 0.5 h [10]: 4.12 ng/mL
- Vd/F (human, plasma, po, 120 mg, Fasted N = 15, 120 mg MDMA·HCl, preliminary, arithmetic mean): 372 L
- AUC(0-t) (human, plasma, po, 120 mg, Fasted N = 15, 120 mg MDMA·HCl, preliminary, arithmetic mean, read-out: AUC0-72): 3370 ng·h/mL
- AUC(0-inf) (human, plasma, po, 120 mg, Fasted N = 15, 120 mg MDMA·HCl, preliminary, arithmetic mean, read-out: AUC0-inf): 3390 ng·h/mL
- AUC(0-t) (human, plasma, po, 120 mg, Fasted N = 15, 120 mg MDMA·HCl, preliminary, arithmetic mean, read-out: AUC0-t): 3120 ng·h/mL
- half-life (human, plasma, po, 120 mg, Fasted N = 15, 120 mg MDMA·HCl, preliminary, arithmetic mean, read-out: t1/2 (converted)): 8.7 h
- Vd/F (human, plasma, po, 120 mg, Fed N = 11, 120 mg MDMA·HCl, preliminary, arithmetic mean): 349 L
- AUC(0-t) (human, plasma, po, 120 mg, Fed N = 11, 120 mg MDMA·HCl, preliminary, arithmetic mean, read-out: AUC0-72): 3300 ng·h/mL
- AUC(0-t) (human, plasma, po, 120 mg, Fed N = 11, 120 mg MDMA·HCl, preliminary, arithmetic mean, read-out: AUC0-t): 3060 ng·h/mL
- half-life (human, plasma, po, 120 mg, Fed N = 11, 120 mg MDMA·HCl, preliminary, arithmetic mean, read-out: t1/2 (converted)): 8 h
- AUC(0-inf) (human, plasma, po, 120 mg, single 120 mg dose of MDMA·HCl, fasting, read-out: AUC0-inf): 3890 ng·h/mL
- half-life (human, plasma, po, 120 mg, single 120 mg dose of MDMA·HCl, fasting, read-out: t1/2 (converted)): 9.1 h
- Tmax (human, plasma, po, single 120 mg dose of MDMA·HCl, fasting, read-out: Tmax): ≤ 2 h
- plasma concentrations and PK parameters (Cmax, AUC0-t, AUC0-inf, AUC0-72, AUC% ext), fed vs fasted (single 120 mg MDMA HCl): not significantly different
- Tmax (single 120 mg dose of MDMA·HCl, fasting): 2.00 h
- unbound maximum concentration (Cmax) (single 120 mg dose, estimated from Cmax 261 ng/ml and 51% protein binding): 660 nM

Reference: patent US20250134855A1, “CO[…] AND METHODS OF USING SAME” (LYKOS THERAPEUTICS, INC., priority 2022, published 2025)
